Results reported in PubChem BioAssay AID248 (DTP/NCI, 2004).
Toxic doses and inconclusive results are not listed.

System: L1210 leukemia ip in BDF1 mice, survival T/C
Assay: NCI In Vivo Anticancer Drug Screen. Data for tumor model L1210 Leukemia (intraperitoneal) in B6D2F1 (BDF1) mice
Details: endpoint: mean survival time, higher = longer survival
How it was run: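 Value reflects the ratio of survival in compound-treated mice to survival in vehicle-treated controls, with both groups carrying the same transplanted tumor.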

[1] = dose: 100.0 mg/kg/injection, schedule: Q04DX003 (ip), vehicle: saline
[2] = dose: 100.0 mg/kg/injection, schedule: Q01DX001 (ip), vehicle: saline
[3] = dose: 200.0 mg/kg/injection, schedule: Q01DX001 (ip), vehicle: saline
[4] = dose: 400.0 mg/kg/injection, schedule: Q01DX001 (ip), vehicle: saline
[5] = dose: 100.0 mg/kg/injection, schedule: Q01DX001 (ip), vehicle: carboxymethylcellulose (CMC)
[6] = dose: 200.0 mg/kg/injection, schedule: Q01DX001 (ip), vehicle: carboxymethylcellulose (CMC)
[7] = dose: 400.0 mg/kg/injection, schedule: Q01DX001 (ip), vehicle: carboxymethylcellulose (CMC)
[8] = dose: 100.0 mg/kg/injection, schedule: Q04DX003 (ip), vehicle: Klucel (hydroxypropylcellulose) (HPC)
[9] = dose: 200.0 mg/kg/injection, schedule: Q04DX003 (ip), vehicle: Klucel (hydroxypropylcellulose) (HPC)
[10] = dose: 400.0 mg/kg/injection, schedule: Q04DX003 (ip), vehicle: Klucel (hydroxypropylcellulose) (HPC)
[11] = dose: 100.0 mg/kg/injection, schedule: Q04DX003 (ip), vehicle: saline with Tween-80
[12] = dose: 200.0 mg/kg/injection, schedule: Q04DX003 (ip), vehicle: saline with Tween-80
[13] = dose: 400.0 mg/kg/injection, schedule: Q04DX003 (ip), vehicle: saline with Tween-80
[14] = dose: 100.0 mg/kg/injection, schedule: Q01DX009 (ip), vehicle: saline
[15] = dose: 100.0 mg/kg/injection, schedule: Q04DX002 (ip), vehicle: Klucel (hydroxypropylcellulose) (HPC)
[16] = dose: 200.0 mg/kg/injection, schedule: Q04DX002 (ip), vehicle: Klucel (hydroxypropylcellulose) (HPC)
[17] = dose: 400.0 mg/kg/injection, schedule: Q04DX002 (ip), vehicle: Klucel (hydroxypropylcellulose) (HPC)
[18] = dose: 100.0 mg/kg/injection, schedule: Q04DX002 (ip), vehicle: saline
[19] = dose: 200.0 mg/kg/injection, schedule: Q04DX002 (ip), vehicle: saline
[20] = dose: 50.0 mg/kg/injection, schedule: Q01DX009 (ip), vehicle: saline

## NCC(=O)NO
dose: 75.0 mg/kg/injection, schedule: Q01DX009 (ip), vehicle: saline
  T/C: 99 % of control
dose: 90.0 mg/kg/injection, schedule: Q01DX015 (ip), vehicle: water
  T/C: 92 % of control
[1]
  T/C: 108 % of control
dose: 133.0 mg/kg/injection, schedule: Q01DX015 (ip), vehicle: water
  T/C: 94 % of control
dose: 150.0 mg/kg/injection, schedule: Q01DX009 (ip), vehicle: saline
  T/C: 99 % of control
dose: 200.0 mg/kg/injection, schedule: Q01DX015 (ip), vehicle: water
  T/C: 94 % of control
dose: 200.0 mg/kg/injection, schedule: Q04DX003 (ip), vehicle: saline
  T/C: 106 % of control
dose: 300.0 mg/kg/injection, schedule: Q01DX009 (ip), vehicle: saline
  T/C: 92 % of control
dose: 400.0 mg/kg/injection, schedule: Q04DX003 (ip), vehicle: saline
  T/C: 98 % of control

## NC(CCSC(c1ccccc1)c1ccccc1)C(=O)O (configuration not stated)
[2]
  T/C: 101 % of control
[3]
  T/C: 97 % of control
[4]
  T/C: 97 % of control

## O=C(O)CCCNCc1cc(=O)[nH]c(=O)[nH]1
[1]
  T/C: 101 % of control

## Nc1ccc2c(c1)-c1ccc(F)cc1C2=O
[5]
  T/C: 91 % of control
[6]
  T/C: 91 % of control
[7]
  T/C: 89 % of control

## Clc1ccccc1C(N=Cc1ccc[nH]1)(c1ccccc1)c1ccccc1
[8]
  T/C: 90 % of control
[9]
  T/C: 93 % of control
[10]
  T/C: 93 % of control

## S=c1nc(-c2ccccc2)[nH][nH]1
[11]
  T/C: 97 % of control
[12]
  T/C: 98 % of control
[13]
  T/C: 88 % of control

## CCCCC#CCCl
[2]
  T/C: 102 % of control
[14]
  T/C: 94 % of control
[3]
  T/C: 103 % of control
[4]
  T/C: 111 % of control

## Cn1c(N)c(N=Nc2ccc(S(=O)(=O)Nc3nccs3)cc2)c(=O)n(C)c1=O
[5]
  T/C: 102 % of control
[6]
  T/C: 96 % of control
[7]
  T/C: 90 % of control

## COc1ccc(C(=O)/C=C/c2cccc(OCc3ccccc3)c2)cc1
dose: 25.0 mg/kg/injection, schedule: Q04DX002 (ip), vehicle: Klucel (hydroxypropylcellulose) (HPC)
  T/C: 102 % of control
dose: 50.0 mg/kg/injection, schedule: Q04DX002 (ip), vehicle: Klucel (hydroxypropylcellulose) (HPC)
  T/C: 91 % of control
[15]
  T/C: 102 % of control
[16]
  T/C: 92 % of control
[17]
  T/C: 103 % of control

## CCN(CC)CCOc1ccc(C=O)cc1
[18]
  T/C: 99 % of control
[19]
  T/C: 95 % of control

## O=C(Nc1ccccc1C(F)(F)F)c1ccc(Cl)cc1
dose: 100.0 mg/kg/injection, schedule: Q01DX009 (ip), vehicle: Klucel (hydroxypropylcellulose) (HPC)
  T/C: 97 % of control
[8]
  T/C: 93 % of control
dose: 200.0 mg/kg/injection, schedule: Q01DX009 (ip), vehicle: Klucel (hydroxypropylcellulose) (HPC)
  T/C: 103 % of control
[9]
  T/C: 99 % of control
dose: 400.0 mg/kg/injection, schedule: Q01DX009 (ip), vehicle: Klucel (hydroxypropylcellulose) (HPC)
  T/C: 94 % of control
[10]
  T/C: 88 % of control

## CCCCCCCCN1C(=O)c2ccccc2S1(=O)=O
dose: 222.0 mg/kg/injection, schedule: Q01DX Z (ip), vehicle: saline
  T/C: 105 % of control
dose: 333.0 mg/kg/injection, schedule: Q01DX Z (ip), vehicle: saline
  T/C: 100 % of control
dose: 500.0 mg/kg/injection, schedule: Q01DX Z (ip), vehicle: saline
  T/C: 113 % of control

## CCCCNC(=O)CCl
[2]
  T/C: 96 % of control
[3]
  T/C: 113 % of control

## N#CCc1c(Cl)sc(Cl)c1CC#N
[11]
  T/C: 88 % of control
[12]
  T/C: 88 % of control

## COC(=O)C(C)Oc1ccc([N+](=O)[O-])c(O)c1[N+](=O)[O-] (configuration not stated)
[8]
  T/C: 100 % of control
[9]
  T/C: 91 % of control
[10]
  T/C: 96 % of control

## O=C(O)/C=C/SCc1ccccc1
[15]
  T/C: 97 % of control
[16]
  T/C: 90 % of control
[17]
  T/C: 97 % of control

## COC1=CC23CCCN2CCc2cc4c(cc2C3C1OC(C)=O)OCO4 (configuration not stated)
dose: 25.0 mg/kg/injection, schedule: Q01DX009 (ip), vehicle: saline
  T/C: 106 % of control
[20]
  T/C: 106 % of control
[14]
  T/C: 102 % of control

## CCOP(=O)(Nc1ccc2c(c1)Cc1cc(Cl)ccc1-2)OCC
dose: 50.0 mg/kg/injection, schedule: Q01DX001 (ip), vehicle: carboxymethylcellulose (CMC)
  T/C: 97 % of control
[5]
  T/C: 105 % of control
[6]
  T/C: 97 % of control
[7]
  T/C: 92 % of control

## COc1ccc(/C=N\NC(=O)CCCC(=O)N/N=C/c2ccc(OC)c(OC)c2)cc1OC
dose: 50.0 mg/kg/injection, schedule: Q01DX001 (ip), vehicle: saline
  T/C: 100 % of control
[2]
  T/C: 100 % of control
[3]
  T/C: 93 % of control
[4]
  T/C: 100 % of control

## O=C(c1ccccc1)C1CCCC1
[15]
  T/C: 89 % of control
[16]
  T/C: 105 % of control

## C=CCC(Cc1cc(CC(CC=C)(C(=O)OCC)C(=O)OCC)cc(CC(CC=C)(C(=O)OCC)C(=O)OCC)c1)(C(=O)OCC)C(=O)OCC
dose: 100.0 mg/kg/injection, schedule: Q04DX003 (ip), vehicle: acetone
  T/C: 107 % of control
dose: 200.0 mg/kg/injection, schedule: Q04DX003 (ip), vehicle: acetone
  T/C: 90 % of control
dose: 400.0 mg/kg/injection, schedule: Q04DX003 (ip), vehicle: acetone
  T/C: 96 % of control

## N#Cc1cccnc1
[20]
  T/C: 97 % of control
[14]
  T/C: 110 % of control
[11]
  T/C: 90 % of control
dose: 200.0 mg/kg/injection, schedule: Q01DX009 (ip), vehicle: saline
  T/C: 108 % of control
[12]
  T/C: 102 % of control
[13]
  T/C: 104 % of control

## Cc1cccnc1NC(=S)Nc1ccccc1Cl
dose: 100.0 mg/kg/injection, schedule: Q04DX002 (ip), vehicle: gum acacia
  T/C: 88 % of control
dose: 200.0 mg/kg/injection, schedule: Q04DX002 (ip), vehicle: gum acacia
  T/C: 98 % of control

## COc1ccc(Br)cc1/C=N/N=C/c1cc(Br)ccc1OC
dose: 100.0 mg/kg/injection, schedule: Q01DX009 (ip), vehicle: saline with Tween-80
  T/C: 89 % of control
[11]
  T/C: 111 % of control
dose: 200.0 mg/kg/injection, schedule: Q01DX009 (ip), vehicle: saline with Tween-80
  T/C: 92 % of control
[12]
  T/C: 93 % of control
dose: 400.0 mg/kg/injection, schedule: Q01DX009 (ip), vehicle: saline with Tween-80
  T/C: 94 % of control
[13]
  T/C: 95 % of control

## CCCCSP(=O)(Cc1ccccc1)SCCCC
dose: 12.5 mg/kg/injection, schedule: Q04DX003 (ip), vehicle: Klucel (hydroxypropylcellulose) (HPC)
  T/C: 102 % of control
dose: 25.0 mg/kg/injection, schedule: Q04DX003 (ip), vehicle: Klucel (hydroxypropylcellulose) (HPC)
  T/C: 95 % of control
dose: 50.0 mg/kg/injection, schedule: Q04DX003 (ip), vehicle: Klucel (hydroxypropylcellulose) (HPC)
  T/C: 97 % of control

## CNCCc1cc2c(c(OC)c1/C=C/C(=O)/C=C/c1c(CCNC)cc3c(c1OC)OCO3)OCO2
dose: 75.0 mg/kg/injection, schedule: Q01DX001 (ip), vehicle: carboxymethylcellulose (CMC)
  T/C: 100 % of control
dose: 150.0 mg/kg/injection, schedule: Q01DX001 (ip), vehicle: carboxymethylcellulose (CMC)
  T/C: 100 % of control

## NC(CCS)C(=O)O (configuration not stated)
[18]
  T/C: 107 % of control
[19]
  T/C: 110 % of control
dose: 400.0 mg/kg/injection, schedule: Q04DX002 (ip), vehicle: saline
  T/C: 96 % of control

## S=C(Nc1ccc(Cl)cc1)NC1CC2C=CC1C2 (configuration not stated)
dose: 100.0 mg/kg/injection, schedule: Q04DX002 (ip), vehicle: saline with Tween-80
  T/C: 101 % of control
dose: 200.0 mg/kg/injection, schedule: Q04DX002 (ip), vehicle: saline with Tween-80
  T/C: 93 % of control

## CCN(C(=O)Nc1cccc(Cl)c1)c1ccccc1C
[11]
  T/C: 93 % of control
[12]
  T/C: 88 % of control

## CCCCNC(C)(C)C(SSSC(c1cccs1)C(C)(C)NCCCC)c1cccs1 (configuration not stated)
dose: 100.0 mg/kg/injection, schedule: Q04DX003 (ip), vehicle: saline sonified
  T/C: 97 % of control
dose: 200.0 mg/kg/injection, schedule: Q04DX003 (ip), vehicle: saline sonified
  T/C: 107 % of control
dose: 400.0 mg/kg/injection, schedule: Q04DX003 (ip), vehicle: saline sonified
  T/C: 100 % of control

## CNc1ccccc1CCc1ccccc1CO
[17]
  T/C: 89 % of control

## COc1cc(Nc2c3ccccc3nc3ccccc23)ccc1NS(C)(=O)=O
dose: 10.0 mg/kg/injection, schedule: Q01DX009 (ip), vehicle: saline with Tween-80
  T/C: 154 % of control
